{"source": "patent US6855730B2", "about": "“3-methylidenyl-2-indolinone modulators of protein kinase” (Sugen, Inc., priority 1998, dated 2005)", "biological_target": "T1, human flk-1 (Homo sapiens, UniProt P35968)", "T1 construct": "host or cells: Flk-1/NIH cells (NIH fibroblasts)", "T1 sequence (P35968 20-1356)": "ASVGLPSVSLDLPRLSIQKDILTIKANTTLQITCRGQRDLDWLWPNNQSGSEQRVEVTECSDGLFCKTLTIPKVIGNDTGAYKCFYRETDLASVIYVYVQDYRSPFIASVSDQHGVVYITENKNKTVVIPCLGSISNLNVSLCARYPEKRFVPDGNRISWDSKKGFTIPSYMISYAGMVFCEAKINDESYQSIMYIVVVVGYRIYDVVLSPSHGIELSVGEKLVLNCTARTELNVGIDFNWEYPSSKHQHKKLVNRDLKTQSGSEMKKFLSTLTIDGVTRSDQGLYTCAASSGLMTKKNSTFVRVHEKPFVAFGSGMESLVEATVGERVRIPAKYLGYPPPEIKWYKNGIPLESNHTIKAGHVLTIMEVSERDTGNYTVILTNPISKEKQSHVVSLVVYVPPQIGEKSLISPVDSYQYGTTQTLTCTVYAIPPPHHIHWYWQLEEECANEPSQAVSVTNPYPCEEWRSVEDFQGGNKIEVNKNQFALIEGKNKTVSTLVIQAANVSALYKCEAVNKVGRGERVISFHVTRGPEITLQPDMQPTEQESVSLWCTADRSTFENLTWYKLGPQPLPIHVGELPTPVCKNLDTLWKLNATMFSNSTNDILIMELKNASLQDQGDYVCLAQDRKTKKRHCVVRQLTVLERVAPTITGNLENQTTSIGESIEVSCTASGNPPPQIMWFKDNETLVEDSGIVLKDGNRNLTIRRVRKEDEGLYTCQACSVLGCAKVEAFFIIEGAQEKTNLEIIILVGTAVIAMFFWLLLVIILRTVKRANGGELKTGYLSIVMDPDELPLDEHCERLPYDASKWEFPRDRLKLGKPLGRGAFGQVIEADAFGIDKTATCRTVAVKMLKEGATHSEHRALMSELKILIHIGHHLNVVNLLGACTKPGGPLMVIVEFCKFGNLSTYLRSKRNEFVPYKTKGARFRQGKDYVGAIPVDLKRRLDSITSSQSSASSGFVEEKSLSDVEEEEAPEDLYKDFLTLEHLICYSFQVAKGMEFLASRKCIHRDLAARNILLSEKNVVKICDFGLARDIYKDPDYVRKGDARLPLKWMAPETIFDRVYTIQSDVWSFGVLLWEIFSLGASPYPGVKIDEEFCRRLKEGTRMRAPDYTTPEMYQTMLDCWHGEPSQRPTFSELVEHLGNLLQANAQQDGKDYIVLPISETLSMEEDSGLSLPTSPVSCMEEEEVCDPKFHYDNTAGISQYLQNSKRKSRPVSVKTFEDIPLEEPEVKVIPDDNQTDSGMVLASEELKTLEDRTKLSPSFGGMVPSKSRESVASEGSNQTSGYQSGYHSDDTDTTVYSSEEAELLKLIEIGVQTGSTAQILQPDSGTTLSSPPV", "assay": "Biochemical FLK-1 assay (flk-1 autophosphorylation ELISA)", "details": "read-out: bio FLK1 IC50 (μM) % if inhibition at 100", "protocol": "This assay evaluates flk-1 autophosphorylation activity in vitro using ELISA.\nMaterials And Reagents • 1. 15 cm tissue culture dishes • 2. Flk-1/NIH cells: NIH fibroblast line over-expressing human flk-1clone 3 (SUGEN, Inc., obtained from MPI, Martinsried, Germany). • 3. Growth medium: DMEM plus heat inactivated 10% FBS and 2 mM Glutamine (Gibco-BRL). • 4. Starvation medium: DMEM plus 0.5% heat-inactivated FBS, 2 mM Glutamine (Gibco-BRL). • 5. […] L4 or E38 monoclonal antibody specific for flk-1, Purified by Protein-A agarose affinity chromatography (SUGEN, Inc.). • 7. PBS (Dulbecco's Phosphate-Buffered Saline) Gibco Cat. No. 450-1300EB). • 8. HNTG (see BIOCHEMICAL FGFR for preparation). • 9. Pierce BCA protein determination kit. • 10. Blocking buffer • 11. TBST (pH 7.0) • 12. Kinase Buffer • 13. Kinase Stop Solution: 200 mM EDTA. • 14. […] AB kit (Vector Laboratories Cat. No. PK 4000). • 16. DMSO • 17. NUNC 96-well V bottom polypropylene plates (Applied Scientific Cat. No. AS-72092). • 18. Turbo-TMB (Pierce). • 19. Turbo-TMB stop solution: 1 M H2SO4. • 20. ATP (Sigma Cat. No. A-7699). • 21. 20% DMSO in TBS (pH 7.0). Procedure\nCell Growth and Lysate Preparation. • 1. Seed cell into growth medium and grow for 2-3 days to 90-100% confluency at 37° C. and 5% CO2.\n2. Remove the medium and wash the cells twice with PBS. Lyse with HNTG lysis buffer. Collect all lysates and vortex mix them for 20-30 seconds. • 3. Remove insoluble material by centrifugation (5-10 min at about 10,000 ×g). • 4. Determine the protein concentration using BCA kit. • 5. Partition lysate into 1 mg aliquots, store at −80° C.\nAssay Procedure • 1. Coat Corning 96-well ELISA plates with 2 μg/well purified L4 (or E 38) in 100 μl of PBS. Store overnight at […] • 2. Remove unbound proteins from wells by inverting the plate to remove the liquid. Wash one time with dH2O, pat plate on paper towel to remove excess liquid. • 3. Block plates with 150 μl blocking buffer per well. Incubate for 45-60 minutes with shaking at 4° C. • 4. Remove the blocking buffer and wash the ELISA plate three times with dH2O and one time with TBST. Pat plate on paper towel to remove excess liquid. • 5. Dilute lysate in PBS to give final concentration of 50 μg/100 μl. Add 100 μl of diluted lysate to each well. Incubate with shaking at 4° C. overnight. • 6. Remove unbound proteins from wells by inverting the plate. Wash as in step 4. • 7. Add 80 μl of kinase buffer to wells (90 μl to negative control wells). • 8. Dilute test compounds (normally 10-fold) into wells of a polypropylene plate containing 20% DMSO in TBS. • 9. Add 10 μl of the diluted compounds to the ELISA wells containing immobilized flk-1 and shake. Control wells receive no compounds. • 10. From stock 1 mM ATP, prepare 0.3 mM ATP solution in dH2O (alternatively, kinase buffer may be used). • 11. Add 10 μl of 0.3 mM ATP to all wells except the negative controls. Incubate for 60 min. at room temperature with shaking. • 12. After 1 hr stop the kinase reaction by adding 11 μl 200 mM EDTA. Shake for 1-2 min. • 13. Wash the ELISA plate 4 times with dH2O and twice with TBST. • 14. Add 100 μl of 1:5000 biotinylated 4G10:TBST to all wells. Incubate 45 min with shaking at room temperature. • 15. While the above is incubating, add 50 μl of solutions A & B from the ABC kit to 10 ml of TBST. These solutions must be combined approximately 30 min prior to use. • 16. Wash plates as in step 4. • 17. Add 100 μl of the preformed A & B complex to all wells. Incubate 30 min with shaking at room temperature. • 18. Wash plates as in step 4. • 19. Add 100 μl turbo-TMB. Shake at room temperature for 10-15 min. • 20. When the color in the positive control wells reaches an absorbance of about 0.35-0.4, stop the reaction with 100 μl of turbo-TMB stop solution. • 21. Read plates on Dynatech MR7000 ELISA reader, test filter: 450 nM, reference filter: 410 nM.", "note": "Where a name gives a salt, the structure may show the parent alone."}
{"smiles": "Cc1c(/C=C2\\C(=O)Nc3ccc(C(=O)O)cc32)[nH]c2ccccc12", "note": "[Example 156, 3-(3-Methyl-1H-indol-2-ylmethylene)-2-oxo-2,3-dihydro-1H-indole-5-carboxylic acid (piperidine salt)]", "values": [{"measurement": "IC50", "value": 4.2, "unit": "µM"}]}
